According to US8153630B2, “Kinase inhibitors” (Miikana Therapeutics, Inc., priority 2004, dated 2012):

Legend:
recombinant Aurora A = target: T1, recombinant Aurora A (Homo sapiens, UniProt O14965); experiment: PanVera Z'-Lyte Aurora kinase assay; assay type: biochemical; conditions: Z'-Lyte Ser/Thr 1 peptide 2 μM, ATP 10 μM, 1 h
T1 construct: purchased Upstate, Lake Placid, N.Y
T1 sequence (O14965 1-403): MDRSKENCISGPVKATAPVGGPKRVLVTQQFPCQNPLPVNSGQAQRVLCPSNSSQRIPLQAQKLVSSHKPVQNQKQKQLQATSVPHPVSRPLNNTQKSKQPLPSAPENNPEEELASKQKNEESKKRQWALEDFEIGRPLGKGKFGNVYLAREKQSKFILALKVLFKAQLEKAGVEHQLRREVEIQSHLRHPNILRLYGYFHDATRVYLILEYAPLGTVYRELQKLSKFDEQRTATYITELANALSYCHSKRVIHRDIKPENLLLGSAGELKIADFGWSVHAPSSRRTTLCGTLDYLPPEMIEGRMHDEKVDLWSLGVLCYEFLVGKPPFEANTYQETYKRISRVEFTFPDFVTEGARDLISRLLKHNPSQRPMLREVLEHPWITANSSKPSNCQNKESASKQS
Procedure: Compounds 7-14 above were tested for their potency against recombinant Aurora A (Upstate, Lake Placid, N.Y.) using the PanVera Z'-Lyte kinase assay kit—Ser/Thr 1 peptide (Invitrogen, Carlsbad, Calif.). Assays were carried out in kinase assay buffer (50 mM HEPES, pH 7.5, 10 mM MgCl2, 5 mM EGTA, 0.05% Brij-35, 2 mM DTT). Test compounds were initially dissolved in DMSO at 100× the highest tested concentration, then serially diluted to 4× test concentrations in kinase assay buffer. Next, Aurora A (final concentration 200-500 ng/mL), Z′-Lyte Ser/Thr 1 peptide (final concentration 2 μM) and ATP (final concentration 10 μM) were added according to the manufacturer's instructions. Assays were carried out in half-area 96-well white polystyrene assay plates (Corning, Corning, N.Y.) in a final volume of 20 μL. The reaction was allowed to proceed for 1 h at room temperature in the dark, at which point the development reagent and stop reagent were added according to the manufacturer's instructions. Coumarin (Ex. 400 nm, Em. 465 nm) and fluorescein (Ex. 400 nm, Em. 565 nm) fluorescence values were measured on a SpectraFluor Plus plate reader (Tecan, Durham, N.C.). The emission ratio (coumarin/fluorescein) was determined and used to calculate the percent phosphorylation for each well. Wells containing substrate but no kinase and wells containing a phosphopeptide control were used to set 0% and 100% phosphorylation values, respectively. Typically 20-40% of the substrate was phosphorylated in wells without inhibitor. Dose-response curves of relative Aurora A activity vs. inhibitor concentration were plotted with Grafit (Erithacus Software, Horley, Surrey, UK) and used to calculate IC50 values.

HCT 116 Cells = experiment: Aurora kinase whole cell cytotoxicity assay: Sulforhodamine B; assay type: cell-based; conditions: Homo sapiens, HCT116, SRB staining, 96 hours incubation
Procedure: Human tumour-derived cell lines, HCT116 or MCF7 (ATCC) were plated in a 96 well plate in DMEM containing 10% fetal bovine serum and 2 mM L-glutamine at a density of 500 HCT116 cells or 1,000 MCF7 cells per well and incubated at 37° C., 5% CO2, for 24 hours prior to the addition of experimental compounds. Compounds were added using the dilution series indicated to duplicate plates and the cells were incubated in media plus compound for 96 hours. An additional plate was fixed in 10% TCA at the time of the addition of compound to provide a measurement of the cell population at time zero, the time of drug addition. Following the 96 hour incubation, cells were fixed in situ by gently aspirating off the culture media and then adding 50 ul of ice cold 10% TCA per well and incubation at 4° C. for 60 minutes. The plates were washed with tap water five times and allowed to air dry for 5 minute. 50 ul of a 0.4% (w/v) Sulforhodamine B solution in 1% (v/v) acetic acid was added per well and the cells were incubated for 30 minutes at room temperature. Following staining, plates were washed four times with 1% acetic acid to remove any unbound dye and then allowed to air dry for 5 minutes. The stain was solubilized with 100 ul of 10 mM Tris pH 10.5 per well and placed on an orbital rotator for 5 minutes. The absorbance was read at 570 nm. Percentage growth was calculated using the absorbance readings from the time zero plate (Tz) and the dilution series plate […] which included a column of cells grown in media without compound as a control (C) using the formulas: [(Ti−Tz)/(C−Tz)]×100 for concentrations for which Ti>/=Tz [(Ti−Tz)/Tz]×100 for concentrations for which Ti<Tz.
Three dose response parameters were calculated for each experimental agent. Growth inhibition of 50% (GI50) was calculated from [(Ti−Tz)/(C−Tz)]×100=50, which was the drug concentration resulting in a 50% reduction in the net protein increase (as measured by SRB staining) in control cells during the drug incubation. The drug concentration resulting in total growth inhibition (TGI) was calculated from Ti=Tz. The LC50 (concentration of drug resulting in a 50% reduction in the measured protein at the end of the drug treatment as compared to that at the beginning) indicating a net loss of cells following treatment ws calculated from [(Ti−Tz)/Tz]×100=−50. Values are calculated for each of these three parameters if the level of activity was reached; however, if the effect was not reached or was exceeded, the value for that parameter is expressed as greater or less than the maximum or minimum concentration tested.

Row | IC50 (recombinant Aurora A) [µM] | Structure (SMILES) | GI50 (HCT 116 Cells) [µM]
1 | 0.1 to 1 | Cc1cc(Nc2nc(Sc3ccc(NC(=O)C4CC4)cc3)nc(C(=O)NC3CCCCC3)c2N)n[nH]1 [Compound 62, N-Cyclohexyl 2-(4-cyclopropanecarboxamidophenylsulfanyl)-5-amino-6-(5-methylpyrazol-3-ylamino)-4-pyrimidinecarboxamide] | 1 to 10
2 | < 0.1 | CSCCOC(=O)c1nc(Sc2ccc(NC(=O)C3CC3)cc2)nc(Nc2cc(C)[nH]n2)c1N [Compound 41] | 0.1 to 1
3 | < 0.1 | COCC(C)NC(=O)c1nc(Sc2ccc(NC(=O)C3CC3)cc2)nc(Nc2cc(C)[nH]n2)c1N (stereo not drawn) [Compound 61, N-(2-Methoxy-1-methylethyl) 2-(4-cyclopropanecarboxamidophenylsulfanyl)-5-amino-6-(5-methylpyrazol-3-ylamino)-4-pyrimidinecarboxamide] | 0.1 to 1
4 | < 0.1 | Cc1cc(Nc2nc(Sc3ccc(NC(=O)C4CC4)cc3)nc(C(=O)NCC3CCCO3)c2N)n[nH]1 (stereo not drawn) [Compound 54, N-(Tetrahydrofuran-2-ylmethyl) 2-(4-cyclopropanecarboxamidophenylsulfanyl)-5-amino-6-(5-methylpyrazol-3-ylamino)-4-pyrimidinecarboxamide] | 0.1 to 1
5 | < 0.1 | Cc1cc(Nc2nc(Sc3ccc(NC(=O)C4CC4)cc3)nc(C(=O)N3CCCCC3)c2N)n[nH]1 [Compound 53, Piperidin-1-yl 2-(4-cyclopropanecarboxamidophenylsulfanyl)-5-amino-6-(5-methylpyrazol-3-ylamino)-4-pyrimidinecarboxamide] | 0.1 to 1
6 | < 0.1 | COC(=O)c1nc(Sc2ccc(NC(=O)C3CC3)cc2)nc(Nc2cc(C)[nH]n2)c1N [Compound 7, Methyl 2-(4-cyclopropanecarboxamidophenylsulfanyl)-5-amino-6-(5-methylpyrazol-3-ylamino)-4-pyrimidinecarboxylate] | 0.1 to 1
7 | < 0.1 | CCOC(=O)c1nc([S+]([O-])c2ccc(NC(=O)C3CC3)cc2)nc(Nc2cc(C)[nH]n2)c1N (stereo not drawn) [Compound 14, ethyl 2-(4-cyclopropane-carboxamidophenylsulfinyl)-5-amino-6-(5-methylpyrazol-3-ylamino)-4-pyrimidinecarboxylate] | 
8 | < 0.1 | Cc1cc(Nc2nc(Sc3ccc(NC(=O)C4CC4)cc3)nc(C(=O)OC3CCN(C)CC3)c2N)n[nH]1 [Compound 47, 1-Methylpiperidin-4-yl 2-(4-cyclopropanecarboxamidophenylsulfanyl)-5-amino-6-(5-methylpyrazol-3-ylamino)-4-pyrimidinecarboxylate] | 0.1 to 1
9 | 0.1 to 1 | Cc1cc(Nc2nc(Sc3ccc(NC(=O)C4CC4)cc3)nc(C(=O)OCC[Si](C)(C)C)c2N)n[nH]1 [Compound 67] | 1 to 10
10 | < 0.1 | Cc1cc(Nc2nc(Sc3ccc(NC(=O)C4CC4)cc3)nc(C(=O)OC3CCOCC3)c2N)n[nH]1 [Compound 19, Tetrahydro-2H-pyran-4-yl 2-(4-cyclopropanecarboxamidophenylsulfanyl)-5-amino-6-(5-methylpyrazol-3-ylamino)-4-pyrimidinecarboxylate] | 0.1 to 1
11 | 0.1 to 1 | CCOC(=O)c1nc(Nc2ccc(NC(C)=O)nc2)nc(Nc2cc(C)[nH]n2)c1N [Compound 34, Ethyl 2-(6-acetylamido-3-pyridylamino)-5-amino-6-(5-methylpyrazol-3-ylamino)-4-pyrimidinecarboxylate] | 
12 | < 0.1 | CSCCNC(=O)c1nc(Sc2ccc(NC(=O)C3CC3)cc2)nc(Nc2cc(C)[nH]n2)c1N [Compound 56, N-(2-Methylthioethyl) 2-(4-cyclopropanecarboxamidophenylsulfanyl)-5-amino-6-(5-methylpyrazol-3-ylamino)-4-pyrimidinecarboxamide] | 0.1 to 1
13 | 1 to 10 | Cc1cc(Nc2nc(Sc3ccc(NC(=O)C4CC4)cc3)nc(C(=O)N3CCN(C)CC3)c2N)n[nH]1 [Compound 68] | 1 to 10
14 | < 0.1 | Cc1cc(Nc2nc(Sc3ccc(NC(=O)C4CC4)cc3)nc(C(=O)O)c2N)n[nH]1 [Compound 8, 2-(4-Cyclopropanecarboxamidophenylsulfanyl)-5-amino-6-(5-methylpyrazol-3-ylamino)-4-pyrimidinecarboxylic acid] | 
15 | < 0.1 | Cc1cc(Nc2nc(Sc3ccc(NC(=O)C4CC4)cc3)nc(C(=O)N3CCOCC3)c2N)n[nH]1 [Compound 44, Morpholin-4-yl 2-(4-cyclopropanecarboxamidophenylsulfanyl)-5-amino-6-(5-methylpyrazol-3-ylamino)-4-pyrimidinecarboxamide] | 1 to 10
16 | < 0.1 | Cc1cc(Nc2nc(Sc3ccc(NC(=O)C4CC4)cc3)nc(C(=O)NCC(F)(F)F)c2N)n[nH]1 [Compound 65, N-(2,2,2-Trifluoroethyl) 2-(4-cyclopropanecarboxamidophenylsulfanyl)-5-amino-6-(5-methylpyrazol-3-ylamino)-4-pyrimidinecarboxamide] | 0.1 to 1
17 | < 0.1 | Cc1cc(Nc2nc(Sc3ccc(NC(=O)C4CC4)cc3)nc(C(=O)OCCN(C)C)c2N)n[nH]1 [Compound 46, 2-Dimethylaminoethyl 2-(4-cyclopropanecarboxamidophenylsulfanyl)-5-amino-6-(5-methylpyrazol-3-ylamino)-4-pyrimidinecarboxylate] | 0.1 to 1
18 | < 0.1 | Cc1cc(Nc2nc(Sc3ccc(NC(=O)C4CC4)cc3)nc(C(=O)NC3CCOCC3)c2N)n[nH]1 [Compound 63, N-Tetrahydro-2H-pyran-4-yl 2-(4-cyclopropanecarboxamidophenylsulfanyl)-5-amino-6-(5-methylpyrazol-3-ylamino)-4-pyrimidinecarboxamide] | 0.1 to 1
19 | < 0.1 | CNC(=O)c1nc(Sc2ccc(NC(=O)C3CC3)cc2)nc(Nc2cc(C)[nH]n2)c1N [Compound 9, Methyl 2-(4-cyclopropanecarboxamidophenylsulfanyl)-5-amino-6-(5-methylpyrazol-3-ylamino)-4-pyrimidinecarboxamide] | 
20 | 0.1 to 1 | Cc1cc(Nc2nc(Sc3ccc(NC(=O)C4CC4)cc3)nc(C(=O)Nc3ccccc3)c2N)n[nH]1 [Compound 60, N-Phenyl 2-(4-cyclopropanecarboxamidophenylsulfanyl)-5-amino-6-(5-methylpyrazol-3-ylamino)-4-pyrimidinecarboxamide] | 
21 | < 0.1 | CCOC(=O)c1nc(S(=O)(=O)c2ccc(NC(=O)C3CC3)cc2)nc(Nc2cc(C)[nH]n2)c1N [Compound 13, Ethyl 2-(4-cyclopropanecarboxamidophenylsulfonyl)-5-amino-6-(5-methylpyrazol-3-ylamino)-4-pyrimidinecarboxylate] | 
